Values of other authors in US20150250776A1, “COMPOSITIONS AND METHODS FOR ORAL DELIVERY OF ENCAPSULATED 3-AMINOPYRIDINE-2-CARBOXALDEHYDE PARTICLES” (NANOTHERAPEUTICS, INC., priority 2014, published 2015).

How the values were obtained:
[1] = system: cell lines selected for resistance to hydroxyurea
tumor cell lines = tumor cell lines compared with a fibroblast cell line

SMILES: Nc1cccnc1C=O [3-AP, 3-aminopyridine-2-carboxaldehyde]
- activity in hydroxyurea-resistant cell lines [1]: active
- cytotoxic effects, tumor versus fibroblast cell line (tumor cell lines): preferential cytotoxic effects
- solubility in DMSO (DMSO): soluble
- solubility in aqueous solutions (aqueous solutions): poor solubility
